Patent publication US8921376B2, “Pyrrolopyridines useful as inhibitors of protein kinase” (Vertex Pharmaceuticals Incorporated, priority 2005, dated 2014)

Columns and labels:
Format in all cases: biochemical
Details in all cases: Table 6; enzyme inhibition data (Ki)
JAK3 = target: T1, JAK3 (Homo sapiens, UniProt P52333); assay: JAK3 inhibition assay (33P incorporation into poly(Glu)4Tyr)
T1 sequence (P52333 1-1124): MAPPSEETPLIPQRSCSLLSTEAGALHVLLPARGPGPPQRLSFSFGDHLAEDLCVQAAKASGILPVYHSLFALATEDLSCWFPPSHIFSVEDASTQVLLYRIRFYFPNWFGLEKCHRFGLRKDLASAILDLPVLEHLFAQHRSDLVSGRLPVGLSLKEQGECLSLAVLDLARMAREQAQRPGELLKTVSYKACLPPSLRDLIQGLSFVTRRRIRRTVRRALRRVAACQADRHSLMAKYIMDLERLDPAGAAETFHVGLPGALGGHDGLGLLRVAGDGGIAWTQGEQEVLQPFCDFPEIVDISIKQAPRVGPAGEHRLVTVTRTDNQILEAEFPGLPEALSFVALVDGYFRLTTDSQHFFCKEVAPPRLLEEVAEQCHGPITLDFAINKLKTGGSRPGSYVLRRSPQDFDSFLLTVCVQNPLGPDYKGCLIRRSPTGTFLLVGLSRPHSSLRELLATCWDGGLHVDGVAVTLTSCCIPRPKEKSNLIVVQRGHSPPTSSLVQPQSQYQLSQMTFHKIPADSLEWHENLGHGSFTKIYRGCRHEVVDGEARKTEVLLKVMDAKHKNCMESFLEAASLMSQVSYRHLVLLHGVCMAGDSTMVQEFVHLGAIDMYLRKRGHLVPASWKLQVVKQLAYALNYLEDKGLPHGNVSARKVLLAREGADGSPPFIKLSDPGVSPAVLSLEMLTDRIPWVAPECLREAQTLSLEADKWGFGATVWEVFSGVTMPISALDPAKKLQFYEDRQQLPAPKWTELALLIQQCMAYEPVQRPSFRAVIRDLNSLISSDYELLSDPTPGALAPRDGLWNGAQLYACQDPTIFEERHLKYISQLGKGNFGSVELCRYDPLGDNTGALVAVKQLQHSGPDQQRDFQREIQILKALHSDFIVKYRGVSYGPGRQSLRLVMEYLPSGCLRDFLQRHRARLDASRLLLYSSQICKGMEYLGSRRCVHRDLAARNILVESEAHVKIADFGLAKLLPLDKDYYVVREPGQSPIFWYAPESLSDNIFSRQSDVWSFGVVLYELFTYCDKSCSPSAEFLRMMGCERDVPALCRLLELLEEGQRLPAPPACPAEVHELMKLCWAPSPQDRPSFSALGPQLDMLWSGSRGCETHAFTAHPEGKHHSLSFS
Outline: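 Human JAK3 at 1 nM phosphorylated 1 μM poly(Glu)4Tyr using 5 μM [33P]ATP in HEPES pH 7.4 buffer with MgCl2, DTT and BSA. Reactions ran 20 min at 25° C. and were stopped with TCA. 33P incorporation was measured by scintillation after glass-fiber filter capture.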

JAK2 = JAK2 (Homo sapiens, UniProt O60674); assay: JAK2 inhibition assay (as Example 3 with JAK-2 enzyme)
Chain of JAK2 (O60674 whole entry): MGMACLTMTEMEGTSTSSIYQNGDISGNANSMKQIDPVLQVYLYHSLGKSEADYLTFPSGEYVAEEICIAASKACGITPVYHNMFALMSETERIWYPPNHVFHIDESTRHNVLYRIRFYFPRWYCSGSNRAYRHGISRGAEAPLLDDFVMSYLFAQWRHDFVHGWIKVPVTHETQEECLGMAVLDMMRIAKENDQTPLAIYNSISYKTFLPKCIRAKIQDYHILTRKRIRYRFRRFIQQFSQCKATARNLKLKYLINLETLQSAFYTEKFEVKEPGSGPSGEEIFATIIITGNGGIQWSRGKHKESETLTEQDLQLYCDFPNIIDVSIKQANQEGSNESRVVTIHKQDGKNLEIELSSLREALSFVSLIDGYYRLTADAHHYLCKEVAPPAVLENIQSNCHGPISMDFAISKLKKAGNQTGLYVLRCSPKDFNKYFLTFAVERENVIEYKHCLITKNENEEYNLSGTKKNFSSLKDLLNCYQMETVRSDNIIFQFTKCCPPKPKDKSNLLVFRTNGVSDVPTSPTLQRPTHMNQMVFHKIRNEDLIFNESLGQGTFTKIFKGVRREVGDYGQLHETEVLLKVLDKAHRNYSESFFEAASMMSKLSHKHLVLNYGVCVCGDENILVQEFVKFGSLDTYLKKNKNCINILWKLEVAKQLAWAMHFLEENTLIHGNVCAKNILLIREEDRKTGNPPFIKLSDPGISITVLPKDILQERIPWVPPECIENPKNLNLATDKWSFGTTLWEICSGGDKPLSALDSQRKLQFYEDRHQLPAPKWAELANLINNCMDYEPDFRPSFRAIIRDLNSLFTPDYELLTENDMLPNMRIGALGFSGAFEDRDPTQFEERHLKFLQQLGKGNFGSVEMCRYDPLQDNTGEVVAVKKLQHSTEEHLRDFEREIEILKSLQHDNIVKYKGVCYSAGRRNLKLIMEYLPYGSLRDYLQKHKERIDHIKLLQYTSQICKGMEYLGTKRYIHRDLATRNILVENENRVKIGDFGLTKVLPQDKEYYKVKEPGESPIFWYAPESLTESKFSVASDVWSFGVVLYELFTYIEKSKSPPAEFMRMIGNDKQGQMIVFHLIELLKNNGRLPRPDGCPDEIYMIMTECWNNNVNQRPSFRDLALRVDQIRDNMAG
Outline: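 Radiometric JAK2 kinase assay: poly(Glu)4Tyr substrate at final 15 μM, ATP at final 12 μM with [33P]; buffer 100 mM HEPES pH 7.4, 1 mM DTT, 10 mM MgCl2, 25 mM NaCl, 0.01% BSA. 20 min at 25 °C, TCA-stopped, 33P incorporation counted after filter capture.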

ROCK I = ROCK I (Homo sapiens, UniProt Q13464); assay: ROCK-I inhibition assay (radioactive enzyme assay, MBP substrate)
Chain of ROCK I (Q13464 whole entry): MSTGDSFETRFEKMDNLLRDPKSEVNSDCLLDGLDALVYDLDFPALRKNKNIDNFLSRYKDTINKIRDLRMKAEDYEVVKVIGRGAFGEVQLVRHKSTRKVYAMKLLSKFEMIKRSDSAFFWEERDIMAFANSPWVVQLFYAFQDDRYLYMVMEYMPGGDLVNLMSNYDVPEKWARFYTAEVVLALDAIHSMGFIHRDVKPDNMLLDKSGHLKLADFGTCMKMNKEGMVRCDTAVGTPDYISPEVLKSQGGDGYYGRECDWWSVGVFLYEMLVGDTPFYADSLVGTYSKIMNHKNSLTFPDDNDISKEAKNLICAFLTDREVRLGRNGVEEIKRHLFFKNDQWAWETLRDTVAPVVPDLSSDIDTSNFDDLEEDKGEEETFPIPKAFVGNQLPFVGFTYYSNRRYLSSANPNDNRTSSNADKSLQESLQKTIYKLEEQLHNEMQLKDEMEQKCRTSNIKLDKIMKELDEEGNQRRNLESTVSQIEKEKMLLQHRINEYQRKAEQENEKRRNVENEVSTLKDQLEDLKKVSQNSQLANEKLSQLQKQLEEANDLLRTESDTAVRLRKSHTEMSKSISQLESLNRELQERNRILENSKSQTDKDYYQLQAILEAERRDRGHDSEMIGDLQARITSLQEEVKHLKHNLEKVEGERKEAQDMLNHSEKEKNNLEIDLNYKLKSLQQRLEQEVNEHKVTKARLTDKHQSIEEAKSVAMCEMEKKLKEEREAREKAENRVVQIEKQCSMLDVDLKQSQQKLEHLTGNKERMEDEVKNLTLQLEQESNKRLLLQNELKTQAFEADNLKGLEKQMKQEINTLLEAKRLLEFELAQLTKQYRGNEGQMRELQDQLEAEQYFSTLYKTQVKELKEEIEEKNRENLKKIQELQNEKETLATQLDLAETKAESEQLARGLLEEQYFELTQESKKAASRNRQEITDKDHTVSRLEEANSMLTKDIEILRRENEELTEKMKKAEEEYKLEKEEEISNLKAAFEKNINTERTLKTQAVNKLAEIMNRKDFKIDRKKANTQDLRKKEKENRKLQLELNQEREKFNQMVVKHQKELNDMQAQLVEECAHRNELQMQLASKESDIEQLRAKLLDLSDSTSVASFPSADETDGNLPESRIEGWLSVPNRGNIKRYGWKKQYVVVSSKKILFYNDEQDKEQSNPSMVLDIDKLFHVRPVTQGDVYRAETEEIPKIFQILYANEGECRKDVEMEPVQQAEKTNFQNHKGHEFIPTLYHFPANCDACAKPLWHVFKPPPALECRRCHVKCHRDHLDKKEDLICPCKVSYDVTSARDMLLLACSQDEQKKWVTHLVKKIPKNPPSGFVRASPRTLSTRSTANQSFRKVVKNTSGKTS
Outline: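 Human ROCK at 5 nM phosphorylated 27 μM myelin basic protein with 13 μM [γ-33P]ATP (final) in HEPES pH 7.5, MgCl2, NaCl, DTT and 1.5% DMSO. Reactions ran 2 h at room temperature before TCA quench and filter-plate scintillation counting. After background subtraction, data were fit to give Ki(app).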

| Structure (SMILES) | Ki (JAK3) [µM] | Ki (JAK2) [µM] | Ki (ROCK I) [µM] |
| --- | --- | --- | --- |
| O=C(NCC(F)(F)F)[C@H]1CCCN1c1nc(-c2ccnc3[nH]ccc23)ncc1F [compound 198] | 0.5 to 5 | 0.5 to 5 | > 4 |
| O=C(NCC(F)(F)F)[C@@H]1CCCN1c1nc(-c2ccnc3[nH]ccc23)ncc1F [compound 199] | < 0.5 | 0.5 to 5 | > 4 |
| C[C@@H](Nc1nc(-c2ccnc3[nH]ccc23)nc2ccccc12)C(=O)NCC(F)(F)F [compound 200] | 0.5 to 5 | 0.5 to 5 | > 4 |
| C[C@@H](Nc1nc(-c2ccnc3[nH]ccc23)ncc1F)C(=O)NCC(F)(F)F [compound 201] | < 0.5 | 0.5 to 5 | > 4 |
| C[C@@H](Nc1ccnc(-c2ccnc3[nH]ccc23)n1)C(=O)NCC(F)(F)F [compound 202] | < 0.5 | 0.5 to 5 | > 4 |
| Nc1nc(-c2ccnc3[nH]ccc23)ncc1F [compound 203] | 0.5 to 5 | 0.5 to 5 | > 4 |
| O=C(NCC(F)(F)F)[C@H](CO)Nc1nc(-c2ccnc3[nH]ccc23)ncc1F [compound 204] | < 0.5 | 0.5 to 5 | 0.5 to 5 |
| COc1ccc(F)cc1-c1ccnc2[nH]ccc12 [compound 205] | 0.5 to 5 | 0.5 to 5 | 0.5 to 5 |
| FC(F)(F)Oc1ccccc1-c1ccnc2[nH]ccc12 [compound 206] | 0.5 to 5 | 0.5 to 5 | > 4 |
| Fc1ccc(-c2ccnc3[nH]ccc23)c(F)c1 [compound 207] | < 0.5 | 0.5 to 5 | 0.5 to 5 |
| FC(F)(F)c1ccccc1-c1ccnc2[nH]ccc12 [compound 208] | > 5 | > 5 | 0.5 to 5 |
| Cc1ccc(C)c(-c2ccnc3[nH]ccc23)c1 [compound 209] | > 5 | > 5 | < 0.5 |
| Clc1ccc(-c2ccnc3[nH]ccc23)c(Cl)c1 [compound 210] | 0.5 to 5 | 0.5 to 5 | < 0.5 |
| Clc1ccc(Cl)c(-c2ccnc3[nH]ccc23)c1 [compound 211] | 0.5 to 5 | 0.5 to 5 | < 0.5 |
| Cc1cccc(-c2ccnc3[nH]ccc23)c1C [compound 212] | 0.5 to 5 | 0.5 to 5 | 0.5 to 5 |
| CC(=O)c1ccccc1-c1ccnc2[nH]ccc12 [compound 213] | > 5 | > 5 | > 4 |
| N#Cc1ccccc1-c1ccnc2[nH]ccc12 [compound 214] | 0.5 to 5 | > 5 | 0.5 to 5 |
| O=C(NCC(F)(F)F)[C@H]1CCCCN1c1ccnc(-c2ccnc3[nH]ccc23)n1 [compound 215] | < 0.5 | 0.5 to 5 | > 4 |
| Clc1ccccc1-c1ccnc2[nH]ccc12 [compound 216] | 0.5 to 5 | 0.5 to 5 | 0.5 to 5 |
| Cc1cccc(C)c1-c1ccnc2[nH]ccc12 [compound 217] | > 5 | > 5 | > 4 |
| Cc1ccc(-c2ccnc3[nH]ccc23)c(C)c1 [compound 218] | 0.5 to 5 | > 5 | < 0.5 |
| Cc1ccccc1-c1ccnc2[nH]ccc12 [compound 219] | 0.5 to 5 | > 5 | 0.5 to 5 |
| COc1ccc(-c2ccnc3[nH]ccc23)c(OC)c1 [compound 220] | 0.5 to 5 | 0.5 to 5 | 0.5 to 5 |
| COc1ccc(OC)c(-c2ccnc3[nH]ccc23)c1 [compound 221] | > 5 | > 5 | 0.5 to 5 |
| COc1cccc(OC)c1-c1ccnc2[nH]ccc12 [compound 222] | > 5 | > 5 | > 4 |
| CCOc1ccccc1-c1ccnc2[nH]ccc12 [compound 223] | 0.5 to 5 | 0.5 to 5 | 0.5 to 5 |

The remaining lines, values ahead:

| Ki (JAK3) [µM] | Ki (JAK2) [µM] | Ki (ROCK I) [µM] | Structure (SMILES) |
| --- | --- | --- | --- |
| 0.5 to 5 | 0.5 to 5 | < 0.5 | Clc1cccc(-c2ccnc3[nH]ccc23)c1Cl [compound 224] |
| > 5 | > 5 | > 4 | c1ccc(COc2ccccc2-c2ccnc3[nH]ccc23)cc1 [compound 225] |
| > 5 | > 5 | > 4 | c1ccc(-c2ccccc2-c2ccnc3[nH]ccc23)cc1 [compound 226] |
| > 5 | > 5 | > 4 | c1cnc2c(-c3ccnc4[nH]ccc34)cccc2c1 [compound 227] |
| < 0.5 | < 0.5 | > 4 | O=C1NCCCC[C@@H]1Nc1c(Cl)cnc2[nH]ccc12 [compound 228] |
| < 0.5 | < 0.5 | 0.5 to 5 | CC1CCC(Nc2c(Cl)cnc3[nH]ccc23)CC1 (stereo not drawn) [compound 229] |
| 0.5 to 5 | 0.5 to 5 | > 4 | CC(C)Oc1ccccc1-c1ccnc2[nH]ccc12 [compound 230] |
| 0.5 to 5 | 0.5 to 5 | 0.5 to 5 | CCc1ccccc1-c1ccnc2[nH]ccc12 [compound 231] |
| > 5 | > 5 | > 4 | CC(C)(C)OCc1ccccc1-c1ccnc2[nH]ccc12 [compound 232] |
| 0.5 to 5 | > 5 | 0.5 to 5 | COc1cccc(-c2ccnc3[nH]ccc23)c1OC [compound 233] |
| 0.5 to 5 | > 5 | > 4 | CCCOc1ccccc1-c1ccnc2[nH]ccc12 [compound 234] |
| 0.5 to 5 | 0.5 to 5 | 0.5 to 5 | COc1ccc(Cl)cc1-c1ccnc2[nH]ccc12 [compound 235] |
| < 0.5 | 0.5 to 5 | < 0.5 | Fc1ccccc1-c1ccnc2[nH]ccc12 [compound 236] |
| > 5 | 0.5 to 5 | 0.5 to 5 | CCOc1ccc(Cl)cc1-c1ccnc2[nH]ccc12 [compound 237] |
| > 5 | > 5 | > 4 | O=C(O)c1ccccc1-c1ccnc2[nH]ccc12 [compound 238] |
| 0.5 to 5 | 0.5 to 5 | 0.5 to 5 | CSc1ccccc1-c1ccnc2[nH]ccc12 [compound 239] |
| > 5 | > 5 | > 4 | c1ccc(Oc2ccccc2-c2ccnc3[nH]ccc23)cc1 [compound 240] |
| > 5 | > 5 | > 4 | CCCCOc1ccccc1-c1ccnc2[nH]ccc12 [compound 241] |
| > 5 | > 5 | > 4 | Cc1cc(C)c(-c2ccnc3[nH]ccc23)c(C)c1 [compound 242] |
| 0.5 to 5 | > 5 | 0.5 to 5 | Cc1cc(F)ccc1-c1ccnc2[nH]ccc12 [compound 243] |
| 0.5 to 5 | > 5 | 0.5 to 5 | Cc1ccc(F)c(-c2ccnc3[nH]ccc23)c1Cl [compound 244] |
| > 5 | > 5 | > 4 | COc1cccc(Cl)c1-c1ccnc2[nH]ccc12 [compound 245] |
| > 5 | > 5 | > 4 | c1ccc2c(c1)Oc1c(cccc1-c1ccnc3[nH]ccc13)S2 [compound 246] |
| > 5 | > 5 | > 4 | CS(=O)(=O)Nc1ccccc1-c1ccnc2[nH]ccc12 [compound 247] |
| 0.5 to 5 | 0.5 to 5 | 0.5 to 5 | Oc1ccccc1-c1ccnc2[nH]ccc12 [compound 248] |
| < 0.5 | < 0.5 | < 0.5 | CCOc1cccc(-c2ccnc3[nH]ccc23)c1 [compound 249] |
